Results from patent publication US20230183207A1 (priority 2020, published 2023).

Assays:
[1] = tested on: SARS-CoV-2 strains JPN/TY/WK-521 and NCGM-nCoV-05-2N; assay: microbe, parasite or virus in culture; assay type: cell-based; details: for IC50: Severe acute respiratory syndrome coronavirus 2, Vero C1008, read-out: IC50 against SARS-CoV-2
SARS-CoV-2 = assay type: cell-based

| SMILES | IC50 [1] [µM] | reasonable effects against SARS-CoV-2 in the assays [1] | other results |
| --- | --- | --- | --- |
| C=CCn1ccc2c(C(=O)Oc3cncc(Cl)c3)cccc21 [GRL-0820S] | 15 ± 18 | – | blocking of infectivity, replication and cytopathic effect of SARS-CoV-2 (SARS-CoV-2): significantly blocked the infectivity and replication; viral breakthrough (SARS-CoV-2): viral breakthrough occurred |
| O=C(Oc1cncc(Cl)c1)c1cccc2[nH]ccc12 [GRL-0920S] | 2.8 ± 0.3 | – | block of infectivity and cytopathic effect of SARS-CoV-2 (FIG. 1) (SARS-CoV-2): virtually completely block the infectivity and cytopathic effect; blocking of infectivity, replication and cytopathic effect of SARS-CoV-2 (SARS-CoV-2): completely blocked the infectivity, replication, and cytopathic effect |
| NC(=O)c1nc(F)c[nH]c1=O [favipiravir] | – | none | – |
| CCN(CCO)CCCC(C)Nc1ccnc2cc(Cl)ccc12 (centres unmarked) [hydroxychloroquine] | – | none | – |
| Cc1cccc(C)c1OCC(=O)N[C@@H](Cc1ccccc1)[C@@H](O)C[C@H](Cc1ccccc1)NC(=O)[C@H](C(C)C)N1CCCNC1=O [lopinavir] | – | none | – |
| N=C(N)c1ccc2cc(OC(=O)c3ccc(N=C(N)N)cc3)ccc2c1 [nafamostat] | – | none | – |
| Cc1c(O)cccc1C(=O)N[C@@H](CSc1ccccc1)[C@H](O)CN1C[C@H]2CCCC[C@H]2C[C@H]1C(=O)NC(C)(C)C [nelfinavir] | – | none | – |
| CC(=O)Oc1ccccc1C(=O)Nc1ncc([N+](=O)[O-])s1 [nitazoxanide] | – | none | – |
| CCC(CC)COC(=O)[C@H](C)N[P@](=O)(OC[C@H]1O[C@@](C#N)(c2ccc3c(N)ncnn23)[C@H](O)[C@@H]1O)Oc1ccccc1 [remdesivir] | 2.6 ± 0.7 | – | – |
| NC(=O)c1ncn([C@@H]2O[C@H](CO)[C@@H](O)[C@H]2O)n1 [ribavirin] | – | none | – |
